US11274115B2, “Imidazoquinoline derivatives and their use in therapy” (GLAXOSMITHKLINE BIOLOGICALS SA, priority 2016, dated 2022)
pEC50: −log10 of the molar value. Like-named read-outs stand apart in the source and are kept apart here.

Key:
Assay type in all cases: cell-based
human TLR7 = target: T1, human TLR7 (Homo sapiens, UniProt Q9NYK1); assay: hTLR7 agonist reporter assay in HEK293 cells (NFκB-SEAP); conditions: for hTLR7 agonist activity, in words: Table 3, FIG. 5; for pEC50: read-out: hTLR7 ED50; for hTLR7/8 ratio: hTLR7 ED50 over hTLR8 ED50
T1 construct: host or cells: HEK293
T1 sequence (Q9NYK1 27-1049): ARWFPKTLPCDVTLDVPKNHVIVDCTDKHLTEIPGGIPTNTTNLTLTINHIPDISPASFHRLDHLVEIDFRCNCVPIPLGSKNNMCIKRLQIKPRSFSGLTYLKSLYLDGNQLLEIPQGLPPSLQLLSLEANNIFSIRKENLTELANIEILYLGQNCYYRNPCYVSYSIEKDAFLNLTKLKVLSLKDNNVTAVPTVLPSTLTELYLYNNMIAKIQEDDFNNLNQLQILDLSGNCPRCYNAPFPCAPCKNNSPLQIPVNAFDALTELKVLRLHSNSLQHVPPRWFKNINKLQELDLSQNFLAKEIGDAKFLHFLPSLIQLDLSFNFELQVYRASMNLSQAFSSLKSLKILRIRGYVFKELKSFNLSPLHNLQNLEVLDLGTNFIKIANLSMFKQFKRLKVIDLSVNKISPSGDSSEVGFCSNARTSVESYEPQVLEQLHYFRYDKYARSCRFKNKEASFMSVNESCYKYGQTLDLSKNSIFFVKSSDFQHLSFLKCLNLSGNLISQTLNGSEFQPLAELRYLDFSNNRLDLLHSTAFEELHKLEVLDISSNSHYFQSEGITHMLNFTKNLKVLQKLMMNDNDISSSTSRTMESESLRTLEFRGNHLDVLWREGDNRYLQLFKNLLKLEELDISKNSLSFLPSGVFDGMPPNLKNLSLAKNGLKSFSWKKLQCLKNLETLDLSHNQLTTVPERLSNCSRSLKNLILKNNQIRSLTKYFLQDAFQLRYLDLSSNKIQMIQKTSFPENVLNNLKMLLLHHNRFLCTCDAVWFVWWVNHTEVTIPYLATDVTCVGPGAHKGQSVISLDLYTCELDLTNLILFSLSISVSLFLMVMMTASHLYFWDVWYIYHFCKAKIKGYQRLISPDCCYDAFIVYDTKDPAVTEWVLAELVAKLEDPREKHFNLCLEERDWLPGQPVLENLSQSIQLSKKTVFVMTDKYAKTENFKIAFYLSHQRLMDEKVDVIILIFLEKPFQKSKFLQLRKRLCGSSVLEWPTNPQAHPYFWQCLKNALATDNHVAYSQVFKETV
Procedure: (§1) Assay for hTLR7 and hTLR8 Agonist Activity in HEK-293 Cells
(§2) Determination of TLR agonist activity was performed using the HEK293 […]. This assay measures TLR7 and TLR8 selectivity and potency of the compounds tested. HEK293 cells expressing human TLR7 or TLR8 and NFκB responsive Secreted Embryonic Alkaline Phosphatase (SEAP) reporter gene were obtained from InvivoGen (San Diego, Calif.). These cells were maintained in culture media of Dulbecco's Modified Eagle Medium (DMEM) (Invitrogen, Grand Island, N.Y.), 10% Fetal Bovine Serum (FBS) (Sigma, St. Louis, Mo.) and selection antibiotics (Invitrogen, and Invivogen). HEK293 stably transfected with human TLR7 (hTLR7) or human TLR8 (hTLR8) were stimulated for 24 h with aqueous formulations of test compounds and culture supernatants were analyzed for NFκB activation using the colorimetric SEAP detection kit QuantBlue (InvivoGen).

human TLR8 = target: T2, human TLR8 (Homo sapiens, UniProt Q9NR97); assay: hTLR8 agonist reporter assay in HEK293 cells (NFκB-SEAP); conditions: for hTLR8 agonist activity, in words: Table 3, FIG. 6; for pEC50: read-out: hTLR8 ED50
T2 construct: host or cells: HEK293
T2 sequence (Q9NR97 27-1041): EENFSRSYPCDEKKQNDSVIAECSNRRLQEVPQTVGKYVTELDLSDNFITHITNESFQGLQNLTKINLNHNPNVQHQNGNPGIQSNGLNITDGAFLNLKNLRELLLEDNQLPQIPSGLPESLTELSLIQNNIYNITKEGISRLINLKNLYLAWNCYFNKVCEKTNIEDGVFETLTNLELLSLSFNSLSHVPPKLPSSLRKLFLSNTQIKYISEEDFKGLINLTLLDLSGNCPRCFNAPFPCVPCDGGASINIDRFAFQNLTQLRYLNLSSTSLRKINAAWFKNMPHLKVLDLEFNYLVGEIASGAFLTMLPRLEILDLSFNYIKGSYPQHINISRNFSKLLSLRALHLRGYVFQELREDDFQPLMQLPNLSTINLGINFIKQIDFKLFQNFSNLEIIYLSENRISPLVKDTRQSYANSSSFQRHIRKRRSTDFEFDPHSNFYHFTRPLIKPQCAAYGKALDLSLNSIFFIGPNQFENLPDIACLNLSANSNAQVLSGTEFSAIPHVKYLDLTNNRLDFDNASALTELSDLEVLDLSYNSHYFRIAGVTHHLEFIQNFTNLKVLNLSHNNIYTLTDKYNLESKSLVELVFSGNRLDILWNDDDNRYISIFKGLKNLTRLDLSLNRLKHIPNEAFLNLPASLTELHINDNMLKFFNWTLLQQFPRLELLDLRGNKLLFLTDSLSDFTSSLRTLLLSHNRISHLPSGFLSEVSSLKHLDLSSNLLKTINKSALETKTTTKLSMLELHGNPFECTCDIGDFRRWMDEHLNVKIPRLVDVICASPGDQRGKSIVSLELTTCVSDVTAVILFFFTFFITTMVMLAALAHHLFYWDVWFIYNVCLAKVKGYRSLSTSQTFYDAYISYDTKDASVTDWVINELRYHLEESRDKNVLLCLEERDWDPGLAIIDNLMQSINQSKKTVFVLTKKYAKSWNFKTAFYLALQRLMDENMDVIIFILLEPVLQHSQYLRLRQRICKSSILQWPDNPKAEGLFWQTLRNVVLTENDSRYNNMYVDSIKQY
Procedure: as §1, §2

[1] = test system: human peripheral blood mononuclear cells (hPBMCs); assay: TNF-α induction in hPBMCs; conditions: 24 h
Procedure: (§3) Assays to Measure Cytokine Induction
(§4) Test compounds were evaluated for cytokine induction in human peripheral blood mononuclear cells (hPBMCs).
(§5) Primary human PBMCs were isolated from fresh blood from healthy donors via Ficoll gradient separation and plated at 0.5×10^6 cells/well in 96-well tissue culture plates (RPMI-1640 plus 10% FBS). hPBMCs were maintained with RPMI-1640 culture media (Invitrogen, Grand Island, N.Y.), antibiotics (Invitrogen) and 10% FBS (Sigma).
(§6) Incubation and Assays for IFN-γ, IFN-α and TNF-α
(§7) hPBMCs were stimulated for 24 h with aqueous formulations of test compounds. Culture supernatants were analyzed for TNF-α and IFN-γ induction using multiplex kits (FluoroKine multiplex kits from R&D Systems, Minneapolis, Minn.) and for IFN-α induction using human IFN-α VeriKine ELISA kit (Pestka Biomedical Laboratories, Inc., Piscataway, N.J.).

[2] = test system: human peripheral blood mononuclear cells (hPBMCs); assay: IFN-α induction in hPBMCs; conditions: 24 h
Procedure: as §3, §4, §5, §6, §7

[3] = test system: human peripheral blood mononuclear cells (hPBMCs); assay: IFN-γ induction in hPBMCs; conditions: 24 h
Procedure: as §3, §4, §5, §6, §7

[4] = Table 3, FIG. 5, another occasion, * = only very low levels of NFKB activation were detected
[5] = Table 3, FIG. 6, another occasion, * = only very low levels of NFKB activation were detected
[6] = Table 4, FIG. 7, another occasion
[7] = Table 4, FIG. 8, another occasion
[8] = Table 1, FIG. 1, 24 h stimulation, aqueous formulations
[9] = Table 2, FIG. 3, another occasion, * = only very low levels of NFKB activation were detected
[10] = Table 1, FIG. 2, 24 h stimulation, aqueous formulations
[11] = Table 2, FIG. 4, another occasion, * = only very low levels of NFKB activation were detected

Row | SMILES | hTLR7 agonist activity, in words (human TLR7) | pEC50 (human TLR7; [4]) | hTLR7/8 ratio (human TLR7; Table 3) | hTLR8 agonist activity, in words (human TLR8) | pEC50 (human TLR8; [5]) | pEC50 (human TLR7; [6]) | pEC50 (human TLR8; [7]) | hTLR7/8 ratio (human TLR7; Table 1) | pEC50 (human TLR7; [9]) | hTLR7/8 ratio (human TLR7; Table 2) | pEC50 (human TLR8; [11]) | TNF-α induction, in words ([1]; FIG. 15, another occasion) | IFN-α induction, in words ([2]; FIG. 14, another occasion) | TNF-α induction, in words ([1]; FIG. 13) | other results
1 | CCCCc1nc2c(N)nc3cc(OCCOCCOCCO)ccc3c2n1CCO [Comparative Example 5] | quite weak agonist of hTLR7 and hTLR8 | 4.88 | 0.8 | quite weak agonist of hTLR7 and hTLR8 | 4.79 |  |  |  |  |  |  | effective but less potent | did not induce IFN-α |  | 
2 | CCCCc1nc2c(N)nc3ccccc3c2n1CCO [Comparative Example 1, reference compound] |  | 5.96 | 1.5 |  | 6.14 | 5.82 | 6.21 | 3.1 | 6.00 | 2.3 | 6.40 | effective at inducing TNF-α | Weaker effects | potent at inducing TNF-α | hTLR7/8 ratio (human TLR7; Table 4): 2.4; IFN-γ induction, in words ([3]; FIG. 11, another occasion): the most potent at inducing IFN-γ; IFN-α induction, in words ([2]; FIG. 16, another occasion): induced little IFN-α
3 | CCCCc1nc2c(N)nc3cc(OCCCCO)ccc3c2n1CCO [Comparative Example 4] | good agonist of hTLR7 and hTLR8 | 5.80 | 0.7 | good agonist of hTLR7 and hTLR8 | 5.66 |  |  |  |  |  |  | effective at inducing TNF-α | did not induce IFN-α |  | 
4 | CCCCc1nc2c(N)nc3cc(OCCO)ccc3c2n1CCO [Comparative Example 3] |  | 5.66 | 1.9 |  | 5.96 |  |  | 15.5 | 5.62 | 2.9 | 6.10 | effective at inducing TNF-α | Weaker effects | potent at inducing TNF-α | pEC50 (human TLR7; [8]): 5.81; pEC50 (human TLR8; [10]): 7.00; IFN-α induction, in words ([2]; FIG. 10): equipotent at inducing IFN-α and these were more potent than Comparative Example 1 and Comparative Example 2 in this assay at a lower dose

Now from value to compound, other results behind:

Row | hTLR7 agonist activity, in words (human TLR7) | pEC50 (human TLR7; [4]) | hTLR7/8 ratio (human TLR7; Table 3) | hTLR8 agonist activity, in words (human TLR8) | pEC50 (human TLR8; [5]) | pEC50 (human TLR7; [6]) | pEC50 (human TLR8; [7]) | hTLR7/8 ratio (human TLR7; Table 1) | pEC50 (human TLR7; [9]) | hTLR7/8 ratio (human TLR7; Table 2) | pEC50 (human TLR8; [11]) | SMILES | TNF-α induction, in words ([1]; FIG. 15, another occasion) | IFN-α induction, in words ([2]; FIG. 14, another occasion) | TNF-α induction, in words ([1]; FIG. 13) | other results
5 | very weak agonist of hTLR7 | 5.06 | 1.5 | reasonably potent agonist of hTLR8 | 5.24 |  |  |  |  |  |  | CCCCCCCC/C=C\CCCCCCCC(=O)OC[C@H](COP(=O)(O)OCCOCCOCCOc1ccc2c(c1)nc(N)c1nc(CCCC)n(CCO)c12)OC(=O)CCCCCCC/C=C\CCCCCCCC [Example 6] | effective but less potent | potent, but less so than Example 1 |  | 
6 |  |  |  |  |  | 5.21 | 6.09 |  |  |  |  | CCCCCCCCCCCCCCCC(=O)OC[C@H](COCCOCCOCCOP(=O)(O)OCCOc1ccc2c(c1)nc(N)c1nc(CCCC)n(CCO)c12)OC(=O)CCCCCCCCCCCCCCC [Example 2] |  |  |  | 
7 | very weak agonist of hTLR7 or hTLR8 | 4.98 | 1.6 | very weak agonist of hTLR7 or hTLR8 | 5.18 |  |  |  |  |  |  | CCCCCCCC/C=C\CCCCCCCC(=O)OC[C@H](COP(=O)(O)OCCCCOc1ccc2c(c1)nc(N)c1nc(CCCC)n(CCO)c12)OC(=O)CCCCCCC/C=C\CCCCCCCC [Example 5] | very weak effect | potent but at higher dose |  | 
8 |  |  |  |  |  |  |  | 1.3 | 4.26 | 1.4 | 4.41 | CCCCCCCC/C=C\CCCCCCCC(=O)OC[C@H](COP(=O)(O)OCCn1c(CCCC)nc2c(N)nc3ccccc3c21)OC(=O)CCCCCCC/C=C\CCCCCCCC [Comparative Example 2, reference compound] |  |  | not significantly effective at inducing TNF-α | pEC50 (human TLR7; [8]): 4.46; pEC50 (human TLR8; [10]): 4.59; IFN-γ induction, in words ([3]; FIG. 9): did not induce any IFN-γ; IFN-γ induction, in words ([3]; FIG. 11, another occasion): did not induce IFN-γ
9 |  |  |  |  |  | 4.84 | 5.42 |  |  |  |  | CCCCCCCCCCCCCCCC(=O)OC[C@H](COP(=O)(O)OCCOc1ccc2c(c1)nc(N)c1nc(CCCC)n(CCO)c12)OC(=O)CCCCCCCCCCCCCCC [Example 7] |  |  |  | 
10 |  |  |  |  |  |  |  |  |  |  | 4.50 | CCCCc1nc2c(N)nc3cc(OCCOP(=O)(O)OCCOCCOCCO[C@H]4CC[C@@]5(C)C(=CC[C@H]6[C@@H]7CC[C@H]([C@H](C)CCCC(C)C)[C@@]7(C)CC[C@@H]65)C4)ccc3c2n1CCO [Example 4] |  |  |  | 
